According to patent US12617795B2, “Substituted 6,7-dihydro-5H-pyrrolo[3,4-d]pyrimidines, 5,7-dihydrofuro[3,4-d]pyrimidines, and pyrido[2,3-d]pyrimidines as KCC2 modulators” (Astrazeneca AB, priority 2020, dated 2026):

target: T1, KCC2 (Homo sapiens, UniProt Q9H2X9); experiment: KCC2 thallium transport FLIPR-based assay (Tl+ influx in HEK293 cells expressing KCC2); format: cell-based; details: 90 min compound incubation at RT, thallium flux at 120 s used to determine EC50
T1 construct: expressed in transfected cells; host or cells: HEK293 cells electroporated (Maxcyte STX) with the pcDNA3.1 KCC2 plasmid
T1 sequence (Q9H2X9 1-1139): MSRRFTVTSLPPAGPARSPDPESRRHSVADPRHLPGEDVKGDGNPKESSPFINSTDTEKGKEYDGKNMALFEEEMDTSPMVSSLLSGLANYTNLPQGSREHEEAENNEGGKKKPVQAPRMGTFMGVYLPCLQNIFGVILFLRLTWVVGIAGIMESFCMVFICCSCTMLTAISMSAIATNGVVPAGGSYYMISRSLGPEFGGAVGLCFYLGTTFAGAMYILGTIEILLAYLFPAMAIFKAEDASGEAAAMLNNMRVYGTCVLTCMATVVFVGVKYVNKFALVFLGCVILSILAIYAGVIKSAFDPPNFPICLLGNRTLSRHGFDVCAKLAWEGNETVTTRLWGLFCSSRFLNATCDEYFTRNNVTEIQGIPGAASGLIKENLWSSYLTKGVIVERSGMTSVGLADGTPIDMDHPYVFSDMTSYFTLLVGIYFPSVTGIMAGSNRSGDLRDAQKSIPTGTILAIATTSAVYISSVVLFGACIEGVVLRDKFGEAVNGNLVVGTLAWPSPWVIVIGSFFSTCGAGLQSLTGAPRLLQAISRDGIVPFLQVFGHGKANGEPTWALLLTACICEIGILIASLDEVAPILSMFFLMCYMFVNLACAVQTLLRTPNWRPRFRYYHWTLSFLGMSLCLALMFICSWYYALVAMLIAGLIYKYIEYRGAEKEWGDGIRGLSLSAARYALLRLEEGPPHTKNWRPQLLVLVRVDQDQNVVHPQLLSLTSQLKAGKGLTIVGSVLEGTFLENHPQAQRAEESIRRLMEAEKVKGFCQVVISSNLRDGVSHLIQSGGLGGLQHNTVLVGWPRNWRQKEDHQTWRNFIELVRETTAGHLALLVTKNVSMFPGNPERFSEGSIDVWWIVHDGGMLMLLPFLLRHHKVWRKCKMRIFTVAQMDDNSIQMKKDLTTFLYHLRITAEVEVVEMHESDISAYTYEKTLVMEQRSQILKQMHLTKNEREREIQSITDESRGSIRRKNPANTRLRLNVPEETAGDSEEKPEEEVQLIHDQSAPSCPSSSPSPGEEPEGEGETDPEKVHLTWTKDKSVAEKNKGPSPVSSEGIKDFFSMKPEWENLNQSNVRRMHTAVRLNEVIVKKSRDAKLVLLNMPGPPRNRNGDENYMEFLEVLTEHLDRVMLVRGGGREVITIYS
Summary of the method: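 Transient electroporation of codon-optimised human KCC2 into HEK293 cells, plated and cultured 48 h before dye loading (1 h, RT). Compounds run as a 12-point 1:2 series from 100 μM top, 90 min RT in buffer containing bumetanide; Tl+ flux read by FLIPR after stimulus addition, 1 s intervals over 120 s, with the 120 s signal used for EC50.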

| SMILES | EC50 [µM] |
| --- | --- |
| C[C@@H]1CN(c2nc(Nc3ccc(C4CCC4)cc3)c3c(n2)C(=O)N(CCN(C)C)C3)CCO1 [Example 75, 4-[(4-cyclobutylphenyl)amino]-6-[2-(dimethylamino)ethyl]-2-[(2R)-2-methylmorpholin-4-yl]-5,6-dihydro-7H-pyrrolo[3,4-d]pyrimidin-7-one] | 3.77 |
| CC(C)N1Cc2c(Nc3ccc(-c4ccsc4)cc3)nc(N3CCOCC3)nc2C1=O [Example 114, 2-(morpholin-4-yl)-6-(propan-2-yl)-4-{[4-(thiophen-3-yl)phenyl]amino}-5,6-dihydro-7H-pyrrolo[3,4-d]pyrimidin-7-one] | 7.3 |
| CCCc1ccc(Nc2nc(N3CCO[C@H](C)C3)nc3c2CN(C(C)C)C3=O)cc1 [Example 60, 2-[(2R)-2-methylmorpholin-4-yl]-6-(propan-2-yl)-4-[(4-propylphenyl)amino]-5,6-dihydro-7H-pyrrolo[3,4-d]pyrimidin-7-one] | 4.82 |
| CC(C)N1Cc2c(Nc3ccc(C4CCCCC4)cc3)nc(N3CCOC(C4CC4)C3)nc2C1=O (single isomer, unassigned) [Example 15, 4-[(4-cyclohexylphenyl)amino]-2-(2-cyclopropylmorpholin-4-yl)-6-(propan-2-yl)-5,6-dihydro-7H-pyrrolo[3,4-d]pyrimidin-7-one] | 0.769 |
| CC(C)c1ccc(Nc2nc(N3CCSC3)nc3c2CN(C(C)C)C3=O)cc1 [Example 3, 6-(propan-2-yl)-4-{[4-(propan-2-yl)phenyl]amino}-2-(1,3-thiazolidin-3-yl)-5,6-dihydro-7H-pyrrolo[3,4-d]pyrimidin-7-one] | 3 |
| CC(C)N1Cc2c(Nc3ccc(C(F)(F)C(F)(F)F)cc3)nc(N3CCO[C@H](C)C3)nc2C1=O [Example 61, 2-[(2R)-2-methylmorpholin-4-yl]-4-{[4-(pentafluoroethyl)phenyl]amino}-6-(propan-2-yl)-5,6-dihydro-7H-pyrrolo[3,4-d]pyrimidin-7-one] | 5.51 |
| CC(C)N1Cc2c(Nc3ccc(C4CCCCC4)cc3)nc(N3CCOC4(CCOCC4)C3)nc2C1=O [Example 25, 4-[(4-cyclohexylphenyl)amino]-2-(1,9-dioxa-4-azaspiro[5.5]undecan-4-yl)-6-(propan-2-yl)-5,6-dihydro-7H-pyrrolo[3,4-d]pyrimidin-7-one] | 3.41 |
